From publication PMC5603865, “Synthesis, In-Vitro Activity and Metabolic Properties of Quinocetone and Structurally Similar Compounds” (Iranian Journal of Pharmaceutical Research : IJPR, 2017) come the findings set out here.

The subject of one assay is Aeromonas hydrophila. Nature of the assay: In-vitro antibacterial activity, MIC by broth dilution. The conditions noted are these: Aeromonas hydrophila; broth dilution, 24 h; read-out: MIC values Aeromonas hydrophila. The assay is classed as cell-based. Here is the method:
(§1) All test compounds were dissolved in dimethyl sulfoxide (DMSO, Sigma, USA) and then diluted in Dulbecco’s modified Eagle’s medium (DMEM, Gibco, USA) at desired concentrations for cell proliferation analyses or diluted in nutrient broth medium for antimicrobial susceptibility testing respectively. The final concentration of DMSO in the DMEM culture medium was under 0.1% (v:v).
(§2) The preliminary antibacterial activities were obtained for selected compounds against various bacteria, namely: Staphyloccocus aureus ATCC25923 (Gram-positive bacteria), Clostridium perfringen CVCC52,8604 (anaerobes bacteria), Salmonella pullorum (Gram-negative bacteria), Escherichia coli ATCC25922 (Gram negative bacteria) and Aeromonas hydrophila (Gram-negative bacteria) were used in the study. Each strain was cultured in appropriate broth medium. Clostridium perfringen was incubated in an anaerobic chamber. The minimum inhibitory concentration (MIC) for each test compound was estimated using the broth dilution method. The MIC’s was determined for each strain/compound pairs that presented antimicrobial activity. The method was modified from Mohapatra›s methods ([14], [15]). Cell suspensions were prepared in 2 mL of liquid medium with concentrations of various tests of compounds in 15 mL culture tubes by inoculation with 100 μL of 10^6 cfu/mL from each stock. The cultures were incubated at 28 °C or 37 °C for 24 h. Tubes showing no visible turbidity represented the MIC, and subsequently, were inoculated on the right side of the 9cm sterile nutrient agar plates without various test compounds and incubated for 24 h (Clostridium perfringen was incubated in an anaerobic chamber.). The least concentration, at which no growth was observed, represented the minimum bactericidal concentration (MBC) ([16]).
For orientation: In broth dilution the organism is exposed to a series of concentrations in liquid medium.

Assay [1] concerns Escherichia coli ATCC25922. The assay is described as above. The class given is cell-based. The conditions noted are these: Escherichia coli, ATCC25922; broth dilution, 24 h; read-out: MIC values Escherichia coli ATCC25922. The protocol:
as §1, §2

In another assay the test system is Salmonella pullorum. The assay is described as above. The conditions noted are these: Salmonella enterica, PULLORUM, 24 h. The class given is cell-based. The protocol: as §1, §2
Assay [2] concerns Staphyloccocus aureus ATCC25923. The description is as above. The conditions noted are these: broth dilution, 24 h; read-out: MIC values Staphyloccocus aureus ATCC25923. The assay is classed as cell-based. The protocol:
as §1, §2

Assay [3] concerns Clostridium perfringen CVCC52,8604. In words: In-vitro antibacterial activity, MIC by broth dilution (anaerobic chamber). The conditions noted are these: Clostridium, 24 h. The assay is classed as cell-based. Here is the method:
as §1, §2

The subject of another assay is HepG2 cells. Nature of the assay: In-vitro cytotoxicity, MTT cell proliferation assay. The assay is classed as cell-based, human. The conditions noted are these: Homo sapiens, HepG2, 24 h, 24 h incubation, concentration reducing viable cells by 50%. Here is the method: as §1
(§3) HepG2 and normal human Chang liver cells were obtained from the Institute of Biochemistry and Cell Biology, Shanghai Institutes for Biological Sciences, Chinese Academy of Sciences (Shanghai, China). HepG2 and normal human Chang liver cells were cultured at 37˚Cwith 5% CO2 in DMEM supplemented with 2% L-glutamine, 10% fetal bovine serum (Gibco, USA), 100 U/mL penicillin and 100 […] (Gibco, USA).
(§4) The methodology for evaluating the cytotoxicity inhibitory activity of various test compounds towards cell proliferation has been described previously ([11], [17]). Cell proliferation inhibitory analyses were carried out using the 3-(4,5-dimethylthiazole-2-yl)-2,5-diphenyl tetrazolium bromide (MTT, Sigma, USA) assay. Briefly, cancers HepG2 and normal human Chang liver cells were harvested and resuspended in fresh growth medium. A 100 μL cell suspension (5 × 10^4 cells/mL) was aliquoted into each well of a 96-well culture plate. After 12 h incubation, the medium was replaced with fresh medium containing various concentrations of test compounds. The cells were then incubated for another 24 h. At the end of exposure, 10 μL of MTT solution (5 mg/mL) was added, and the cells were incubated for 4 h at 37 °C. The cells were treated with 100 μL DMSO, and absorbance was recorded at 570 nm using a microplate ELISA reader (ELX800, Bio-Tek, USA). All experiments were performed at least thrice, and data were presented as the mean of sixplicate wells ± standard deviation (SD). Cell inhibition was calculated as follows:
(§5) (OD of control group − OD of experimental group) / (OD of control group − OD of blank group) ×100%. The IC50 value for a compound was calculated using SPSS.
(In general: Formazan colour is commonly taken as a measure of viable cells.)

The subject of assay [4] is normal human Chang liver cells. The description is as above. The class given is cell-based. The conditions noted are these: Homo sapiens, Chang liver, 24 h, 24 h incubation, concentration reducing viable cells by 50%. The protocol: as §1, §3, §4, §5

In brackets after ≈: the same amount, converted by molar mass. Where only a bound is given, the exact number is not on record here.

The MIC is the lowest concentration found to suppress growth. Usually IC50 stands for the point on the concentration scale where inhibition reaches its midpoint. The low end stands for inhibition by little substance, the high end for a need for much substance. For the molecule `Cc1nc2ccccc2nc1C(=O)/C=C/c1ccccc1O` [Compound 5c], the MIC was 371 µg/mL (≈ 1280 µM) in the assay on Aeromonas hydrophila; over 500 µg/mL in assay [1]; over 500 µg/mL in the assay with Salmonella pullorum; over 500 µg/mL in assay [2]; over 500 µg/mL in assay [3]. The IC50 in the assay with HepG2 cells is 274 ± 11.6 µM; in assay [4], 361 ± 10.2 µM.

In the case of `Cc1nc2ccccc2nc1C(=O)/C=C/c1cccc([N+](=O)[O-])c1` [Compound 5d], the MIC (in the assay on Aeromonas hydrophila; in assay [1]; with Salmonella pullorum; in assay [2]; in assay [3]) was over 500 µg/mL in each case. In addition, the half-inhibitory concentration (IC50) was determined as 461 ± 4.49 µM with HepG2 cells and 499 ± 8.75 µM in assay [4].

Consider `Cc1nc2ccccc2nc1C(=O)/C=C/c1ccc([N+](=O)[O-])cc1` [Compound 5e], for which the MIC (in the assay with Aeromonas hydrophila; in assay [1]; against Salmonella pullorum; in assay [2]; in assay [3]) was over 500 µg/mL throughout. The IC50 with HepG2 cells amounted to 606 ± 34.6 µM; in assay [4], 590.1 ± 2.22 µM.

Regarding `COc1ccc(/C=C/C(=O)c2nc3ccccc3nc2C)cc1` [Compound 5f], the MIC (in the assay with Aeromonas hydrophila; in assay [1]; against Salmonella pullorum; in assay [2]; in assay [3]) was over 500 µg/mL in each case. In addition, the IC50 in the assay with HepG2 cells was 653 ± 32 µM; in assay [4], 531 ± 19.3 µM.

On to `Cc1nc2ccccc2nc1C(=O)/C=C/c1ccc(Cl)cc1` [Compound 5g], for which the MIC (with Aeromonas hydrophila; in assay [1]; against Salmonella pullorum; in assay [2]; in assay [3]) was over 500 µg/mL in each case. The figures for the IC50 (with HepG2 cells; in assay [4]) were 533 ± 24.8 µM and 689 ± 46.2 µM, respectively.

With `Cc1nc2ccccc2nc1C(=O)/C=C/c1ccc(N(C)C)cc1` [Compound 5h], the MIC (with Aeromonas hydrophila; in assay [1]; with Salmonella pullorum; in assay [2]; in assay [3]) was over 500 µg/mL throughout. The IC50 in the assay with HepG2 cells was 626 ± 25.4 µM; in assay [4], 567 ± 26.7 µM.

Take `Cc1nc2ccccc2nc1C(=O)/C=C/c1ccco1` [Compound 7, 3-methyl-2-(3-fura-2-propenoyl)-quinoxaline]: the MIC in the assay on Aeromonas hydrophila is 338 µg/mL (≈ 1280 µM); in assay [1], over 500 µg/mL; against Salmonella pullorum, over 500 µg/mL; in assay [2], over 500 µg/mL; in assay [3], over 500 µg/mL. The IC50 in the assay on HepG2 cells is 441 ± 12.3 µM; in assay [4], 469 ± 5.26 µM.

Turning to `Cc1nc2ccccc2nc1C(=O)O` [Compound 10, 3-methyl-quinoxaline-2-carboxylic acid], the MIC in the assay with Aeromonas hydrophila was 481 µg/mL (≈ 2560 µM); in assay [1], over 500 µg/mL; in the assay with Salmonella pullorum, over 500 µg/mL; in assay [2] it was over 500 µg/mL; in assay [3], over 500 µg/mL. The IC50 is 2490 ± 133 µM with HepG2 cells and 2120 ± 90.1 µM in assay [4].
